Patent publication US20260248126A1, “BIOCIDE” (PURGOS APS, priority 2020, published 2026)
“And” between values parts separate entries of the source, which are not always exact repeats. Identical values can stand only once. “Also recorded” adds a separate entry of the source.

Legend:
[1] = tested on: Coriolus versicolor. CTB 863 A; test: EN 113 test against wood destroying basidiomycetes (impregnated beech); format: cell-based
[2] = tested on: Gloeophyllum trabeum. BAM Ebw. 109; test: EN 113 test against wood destroying basidiomycetes (impregnated Scots pine sapwood); format: cell-based
[3] = tested on: Leuconostoc mesenteroides ISI 504; test: Minimal inhibitory concentration (MIC), microtiter plate; format: cell-based
Protocol: (§1) For the tested substance. the stock solution was 10%. Minimum inhibitory concentrations (MICs) are defined as the lowest concentration of an antimicrobial that will inhibit the visible growth of a microorganism after a standardized incubation. In the present study, MIC assay was performed by pipetting robot. The principle is that an indicator microorganism at a defined cell density is cultured with a range of concentrations of the test compound, one concentration pr. well in a row on the microtiter plate. For bacteria and yeasts the minimal inhibitory concentration was detected as no increase of optical density (OD), for moulds microtiter plates were read visually. Each indicator organism is tested in duplicate and the MIC is calculated as the average of the two determinations. The tested concentrations of the antimicrobial substances were 2-fold dilutions from 5%. All indicator organisms (see Table 2.) were pre-cultivated in a suitable growth medium and diluted in the same medium to give a final concentration in the assay of ~1×10^3 cfu/ml. The microtiter plates were incubated under specific incubation conditions (see Table 3). [table]

[4] = tested on: Streptococcus termophilus ISI 1563; test: as above; format: cell-based
Protocol: as §1

[5] = tested on: Lactobacillus brevis ISI 2269; test: as above; format: cell-based
Protocol: as §1

[6] = tested on: Debaryomyces hansenii ISI 12; test: as above; format: cell-based
Protocol: as §1

Bacillus cereus ISI 842 [7] = test: as above; format: cell-based
Protocol: as §1

[8] = tested on: Pseudomonas aeruginosa ISI 1462; test: as above; format: cell-based
Protocol: as §1

[9] = tested on: Listeria monocytogenes ISI 22; test: as above; format: cell-based
Protocol: as §1

[10] = tested on: Leuconostoc mesenteroides ISI 504; test: Minimum bactericidal concentration (MBC), outgrowth from MIC plates; format: cell-based
Description: (§2) Even when no growth is detectable in the MIC tests, it is possible that the microorganisms have survived the treatment i.e., they are not killed but just prevented from growing. In order to test for survivors, MBC plates were subsequently made from the MIC plates.

Aspergillus niger ISI 3 = test: as above; format: cell-based
Description: as §2

[11] = tested on: Streptococcus termophilus ISI 1563; test: as above; format: cell-based
Description: as §2

[12] = tested on: Lactobacillus brevis ISI 2269; test: as above; format: cell-based
Description: as §2

[13] = tested on: Debaryomyces hansenii ISI 12; test: as above; format: cell-based
Description: as §2

Bacillus cereus ISI 842 [14] = test: as above; format: cell-based
Description: as §2

[15] = tested on: Pseudomonas aeruginosa ISI 1462; test: as above; format: cell-based
Description: as §2

[16] = tested on: Listeria monocytogenes ISI 22; test: as above; format: cell-based
Description: as §2

Murine norovirus = test: Antiviral activity, ASTM E1052 Kill Time Screen test; format: cell-based; settings: in 60 seconds; from log reduction 0.34
bacterial count in paint = test: In-can preservation of paint, long-time study (bacterial count over time, FIGS. 2-5); format: cell-based
Protocol: The results shown that 0.5% NBDA as sole active ingredient for in-can preservation are as successful over times up to at least as year as in-can preservation by 0.5% NBDA together with 0.5% hydrogen peroxide. FIGS. 2-4 show graphs visualizing data on long term effectivity as NBDA as an in-can additive for preservation of paint. […] In […] the development in bacterial count over time for the abovementioned additives are carried out at RT, 32° C. and 60° C. respectively. The starting point is a stained sample i.e., paint with an initial high bacteria count. […] The results shown are for the development in bacterial count over time for paint samples containing 0.5% NBDA alone and 0.5% NBDA+0.5% Hydrogen Peroxide.

[17] = 10% N-BDA in water; cited from earlier work
[18] = tested on: Canidida albicans ISI 1226; test: Minimal inhibitory concentration (MIC), microtiter plate; format: cell-based, Candida albicans
Protocol: as §1

[19] = tested on: Canidida albicans ISI 1226; test: Minimum bactericidal concentration (MBC), outgrowth from MIC plates; format: cell-based, Candida albicans
Description: as §2

SMILES: CCCCN(CCO)CCO [NBDA, N-butyldiethanolamine]
- Toxic value, Sol. conc. [1]: >2.20 % w/w
- Toxic value, Sol. conc. [2]: 1.01-1.43 % w/w
- fungicide effect, preventing wood destruction ([2]; concentrations of 0.36%, 0.51%, 0.72%, 1.01% and 1.43%): effective as a fungicide for preventing wood destruction
- MIC (%) [3]: 0.31%
- MIC (%) [4]: 0.63%
- MIC (%) [5]: 0.16%
- MIC (%) [6]: 1.25%
- MIC (%) (Bacillus cereus ISI 842 [7]): 1.25%
- MIC (%) [8]: 0.63%
- MIC (%) [9]: 1.25%
- MBC(%) [10]: 0.63%
- optical density (OD), MRC Data ([10]; NBDA 0.02%): 1.449 and 1.467
- optical density (OD), MRC Data ([10]; NBDA 0.04%): 1.449 and 1.468
- optical density (OD), MRC Data ([10]; NBDA 0.08%): 1.413 and 1.467
- optical density (OD), MRC Data ([10]; NBDA 0.16%): 1.337 and 1.425
- optical density (OD), MRC Data ([10]; NBDA 0.31%): 1.452 and 1.448
- optical density (OD), MRC Data ([10]; NBDA 1.25%): 0.075
- optical density (OD), MRC Data ([10]; NBDA 2.50%): 0.076 and 0.077
- optical density (OD), MRC Data ([10]; NBDA 5.00%): 0.066 and 0.067
- MBC(%) (Aspergillus niger ISI 3): 0.63%
- MBC(%) [11]: 1.25%
- optical density (OD), MIC Data (second Streptococcus table) ([11]; NBDA 0.02%): 0.346 and 0.323
- optical density (OD), MIC Data (second Streptococcus table) ([11]; NBDA 0.04%): 0.307 and 0.283
- optical density (OD), MIC Data (second Streptococcus table) ([11]; NBDA 0.08%): 0.311 and 0.304
- optical density (OD), MIC Data (second Streptococcus table) ([11]; NBDA 0.16%): 0.251 and 0.232
- optical density (OD), MIC Data (second Streptococcus table) ([11]; NBDA 0.31%): 0.802 and 0.522
- optical density (OD), MIC Data (second Streptococcus table) ([11]; NBDA 0.63%): 0.277 and 0.427
- optical density (OD), MIC Data (second Streptococcus table) ([11]; NBDA 1.25%): 0.072
- optical density (OD), MIC Data (second Streptococcus table) ([11]; NBDA 2.50%): 0.070 and 0.068
- optical density (OD), MIC Data (second Streptococcus table) ([11]; NBDA 5.00%): 0.062 and 0.058
- MBC(%) [12]: 0.31%
- MBC(%) [13]: 2.5%
- MBC(%) (Bacillus cereus ISI 842 [14]): 1.25%
- MBC(%) [15]: 1.25%
- MBC(%) [16]: 2.5%
- Norovirus eliminated / destroyed (Murine norovirus): 54%
- long term effectivity, bacterial count over time (bacterial count in paint; initial clean sample (low bacterial count), 0.5% NBDA, FIG. 5): as effective as 0.5% NBDA+0.5% Hydrogen peroxide for preventing bacterial growth in paint samples
- long term effectivity, bacterial count over time (bacterial count in paint; initial high count, 0.5% and 1% NBDA, RT, 32° C., 60° C., FIGS. 2-4): consistent long-term results for in-can preservation of paint; also recorded: as effective as NBDA+Hydrogen Peroxide for both NBDA concentrations at all three test temperatures long term; also recorded: highly effective as the sole biocide additive for in-can preservation of paints
- long term effectivity, bacterial count over time (bacterial count in paint; initial high count, 0.5% and 1% NBDA, RT, 32° C., 60° C., FIGS. 2-4, listed as N-butyldiethanolamine): no bacterial growth even for sustained periods of time; also recorded: sustained effect after more than a year
- pH [17]: around 11.1
- MIC (%) [18]: 0.63%
- MBC(%) [19]: 1.25%
